Assay results from article PMC11808659 (RSC Advances, 2025).

tested on: K562 human leukemia cell line; assay: MTT anti-proliferative activity on K562 cell line; type: cell-based; settings: structure-activity discussion

Row | SMILES | anti-tumor activity against K562 cell line (in words)
1 | COc1ccc(-c2cc(-c3ccccc3O)nc(N)n2)cc1 [1d, 2-(2-Amino-6-(4-methoxyphenyl)pyrimidin-4-yl)phenol] | completely lost their anti-tumor activity
2 | Nc1nc(-c2ccc(Cl)cc2)cc(-c2ccccc2O)n1 [1f, 2-(2-Amino-6-(4-chlorophenyl)pyrimidin-4-yl)phenol] | significantly decreased the inhibitory activity
3 | COc1ccc(-c2cc(-c3cccc(OC)c3)nc(N)n2)cc1 [1i, 4-(4-Methoxy-phenyl)-6-(3-methoxy-phenyl)-pyrimidin-2-ylamine] | completely lost their anti-tumor activity
4 | COc1cccc(-c2cc(-c3ccc(Cl)cc3)nc(N)n2)c1 [1k, 4-(4-Chloro-phenyl)-6-(3-methoxy-phenyl)-pyrimidin-2-ylamine] | significantly decreased the inhibitory activity
5 | COc1ccc(-c2cc(-c3ccc(OC)cc3)nc(N)n2)cc1 [1n, 4,6-Bis(4-methoxyphenyl)pyrimidin-2-amine] | completely lost their anti-tumor activity
6 | COc1ccc(-c2cc(-c3ccc(Cl)cc3)nc(N)n2)cc1 [1p, 4-(4-Chlorophenyl)-6-(4-methoxyphenyl)pyrimidin-2-amine] | significantly decreased the inhibitory activity

tested on: ABL1 tyrosine kinase; assay: ABL1 tyrosine kinase inhibition in K562 cells; type: cell-based, human; settings: at a concentration of 30 μM

Row | SMILES | inhibition of ABL1 production
7 | Nc1nc(-c2ccc(Br)cc2)cc(-c2ccccc2O)n1 [1e, 2-(2-Amino-6-(4-bromophenyl)pyrimidin-4-yl)phenol] | 80%
